Data as given in patent publication US20130203843A1, “MILD CATIONIC MITOCHONDRIAL UNCOUPLERS” (LIMITED LIABILITY COMPANY MITOTECH, priority 2010, published 2013).

How the values were obtained:
[1] = test system: rats with induced rhabdomyolysis; assay: Rhabdomyolysis-induced acute renal failure in rats; assay type: in vivo; conditions: rat; i.p. 100 nmol/kg per injection, total 400 nmol/kg; 48 h after glycerol; versus rhabdomyolysis without treatment
Description: FIG. 6. Creatinine level in blood of rats with induced rhabdomyolysis. Histogram bar “control” indicates level of creatinine in control group of animals; “rhabdo”—creatinine level in animals with rhabdomyolysis; “rhabdo+C12-R19”—creatinine level in animals with rhabdomyolysis and treatment with C12R19. All data are presented as mean±standard error of measurement.
Induction of rhabdomyolysis was performed according to standard method by injecting rat leg muscles with 50% aqueous glycerol solution (ICN, USA). At the second day after ischemia, blood samples from animals were taken. Creatinine concentration in blood was determined using a CellTac blood analyzer (Nihon Kohben). Experiments on modeling of rhabdomyolysis were performed with at least 8 animals from each group. All data are presented as mean±standard error of measurement.
For the treatment, the following scheme of C12R19 administration was used: intraperitoneal injection of the preparation 1 h after induction of rhabdomyolysis and then three times every 12 hours at a dose of 100 nmol/kg per injection. Thus, an animal received a total dose of 400 nmol/kg of C12R19.

ischemized rats = assay: Cerebral ischemia in rats (middle cerebral artery blockage): MRT infarct volume and neurological deficit; assay type: in vivo; conditions: rat, i.p. 100 nmol/kg 24 hours before ischemia, 1 day after surgery
Description: FIG. 7. Results of behavioral tests in rats before and at the first day after induction of ischemia. Bar “baseline” indicates final points in animals before surgery; “SO”—points in sham-operated animals; “ischemia+saline”—points in ischemized animals without treatment, with saline solution instead of the preparation; “ischemia+C12R19 0.1 μM” and “ischemia+C12R19 2 μM”—points in ischemized animals with treatment with preparation C12R19 at indicated concentrations. Statistically significant (p<0.01) reduction in severity of neurological deficit in rats treated with C12R19, denoted as
Cerebral ischemia in rats was induced by insertion of nylon thread with silicone coating into the middle cerebral artery. Blockage of the blood flow was maintained for 60 min, after which the thread was removed from the vessel restoring the blood flow in the middle cerebral artery. During and after the surgery the body temperature of the animal was maintained at 37° C. Sham-operated animals were subjected to the same procedures, except for cutting vessels and insertion of thread. The volume of cerebral infarction was determined at the first day to study neuroprotective effects of preparations. […]
1 day after surgery, neurological deficit was determined in rats in the test “Stimulation of legs” and magnetic resonance imaging of the brain was performed. […]

[2] = test system: whole yeast (Saccharomyces cerevisiae) cells; assay: Rate of oxygen consumption by whole yeast cells; assay type: cell-based; conditions: for stimulation of respiration versus suppression of growth: wide range of concentrations, yeast grown on nonfermentable substrate (glycerol)
Description: (§1) FIG. 3. Comparison of properties of C12R19 and C12RB based on relative rate of oxygen consumption by whole yeast (Saccharomyces cerevisiae) cells (A) and yeast growth rate (B). V/V0 corresponds to ratio of oxygen consumption rates after and before addition of uncoupler. Growth rate was defined as the number of CFU (colony-forming units) in cell suspension culture incubated for 2 hours in the presence of indicated concentration of rhodamine derivative.
(§2) FIG. 4. Comparison of stimulation of respiration and suppression of growth: (A) cationic (C12R19), and (B) anionic (FCCP) uncouplers in yeast (Saccharomyces cerevisiae) cells grown on nonfermentable substrate (glycerol). Stimulation of respiration was estimated based on the ratio of oxygen consumption rate in the presence of uncoupler (V) to initial rate (V0). Growth rate was assessed by increase in the number of cells for a given time interval. Growth rate in the absence of uncoupler was taken as 100%.
Simulation of respiration of whole yeast cells reflects uncoupling properties of tested compound.

[3] = test system: yeast Saccharomyces cerevisiae; assay: Yeast growth rate in the presence of uncoupler; assay type: cell-based; conditions: 5 μM; incubated for 2 hours
Description: as §1, §2
Under similar conditions experiments determining yeast growth rate in the presence of a given concentration of uncoupler were performed.

[4] = test system: yeast cells treated with 80 μM amiodarone; assay: Survival of yeast cells treated with amiodarone; assay type: cell-based, Saccharomyces cerevisiae
Description: FIG. 5. Comparison of resistance of yeast cells to 80 μM amiodarone in the presence of different concentrations of anionic (FCCP) and cationic (C12R19) uncouplers.
To test this, we compared the survival of yeast cells treated with 80 μM amiodarone in the presence of 1-10000 nmol/L FCCP and C12R19.

[5] = Dissipation of pH gradient in membranes of pyranine-loaded liposomes; conditions: for dissipation of pH gradient (intraliposomal pH change), protonophore activity: in the presence of valinomycin (10 nM), C12R19 and C12RB at 0.15 μM, pH 8 buffer
Description: FIG. 2. […] Intraliposomal pH was estimated based on the ratio of the intensities of fluorescence at 455 nm and 505 nm (excitation at 410 nm). 1 μM nigericin was added at 550 s for final pH adjustment. Control curve contained C12R19 but no valinomycin. Concentrations: C12R19 (150 nM), C12RB (150 nM), valinomycin (10 nM), lipid (75 μM). […] Control curve corresponds to addition of 10 nM valinomycin without protonophores. Buffer containing 10 mM MES, 10 mM MOPS, 10 mM TRICINE, and 0.1 M KCl (pH 8) was used.
This method was used in various studies on the protonophore activity and is described in detail in article: Chen Y, Schindler M, Simon S M (1999) J Biol Chem 274:18364-18373. […] Said measurements were performed in the presence of valinomycin, the K^+ ionophore.

[6] = Diffusion potential on planar bilayer lipid membrane ("black membrane" model); conditions: for formation of potential upon creation of gradient of the penetrating cation: 1 μM on cis side, same pH on both sides (pH=7); for formation of proton diffusion potential across lipid bilayer: 1 μM, pH_cis=7, pH_trans=8
Description: FIG. 1. A. C12R19, but not C12RB, induces formation of proton diffusion potential across planar lipid bilayer membrane prepared from DPhPC. Concentrations of C12R19 and C12RB are 1 μM. pH_cis=7, pH_trans=8. B. Formation of potential upon creation of gradient of penetrating cations C12RB and C12R19 (1 μM on cis side) at the same pH on both sides (pH=7).
To test penetrating ability of mitochondria-targeted compounds of structure (I), a method based on the ability of ions to penetrate through the bilayer phospholipid membrane moving along concentration gradient was used. The two chambers filled with an aqueous solution are separated by the bilayer membrane, the compound tested is added to one of the chambers. If a charged compound is capable of penetrating through the bilayer membrane, fast diffusion of the compound from the chamber with its high concentration to the chamber with its low concentration occurs, thus difference in the potentials is formed across the membrane. For ions carrying one charge and capable of passive penetrating through the membrane, the 10-fold concentration gradient allows to produce the potential of 60 mV at room temperature and ideal permeability (according to the Nernst equation).
This method was used in various studies on the ability of ions to penetrate through a bilipid membrane and is described in detail in article: Starkov A A, Bloch D A, Chernyak B V, Dedukhova V I, Mansurova S A, Symonyan R A, Vygodina T V, Skulachev V P, 1997, Biochem. Biophys Acta, 1318, 159-172. With this method, C12-R19 (compound of structure (I)) was tested.
It is known that addition of protonophore to such a system should lead to formation of the electric potential due to the flow of protons. […] This can be explained by shunting of potential due to induction of proton conductivity in the presence of C12R19.

obese people = obese people treated with DNP; cited from earlier work
[7] = test system: yeast cells treated with 80 μM amiodarone; conditions: earlier publication (Pozniakovsky 2005); cited from earlier work

SMILES: CCCCCCCCCCCCOC(=O)c1ccccc1-c1c2cc(C)c(=NCC)cc-2oc2cc(NCC)c(C)cc12 (stereo in doubt) [C12R19, Dodecyl-2-[(3E)-6-(ethylamino)-3-(ethylimino)-2,7-dimethyl-3H-xanthen-9-yl]benzoate bromide]
- creatinine level in blood [1]: decrease in creatinine level in blood
- neurological deficit, test "Stimulation of legs" (14-point scale) (ischemized rats; control rats 2.0±0.2, p<0.01): 5.3±1.1 points
- volume of ischemic damage (T2-weighted MRT) (ischemized rats; saline = 100±8.6%): 80.4±11.5%
- rate of respiration of whole yeast cells ([2]; concentration range that includes 5 μM): marked stimulation of the rate of respiration
- rate of respiration of whole yeast cells ([2]; up to a concentration of 15 μM): did not reduce the rate of respiration
- stimulation of respiration versus suppression of growth [2]: increases respiration rate without inhibiting yeast growth
- yeast growth rate (CFU) [3]: significant reduction in the growth rate of the yeast Saccharomyces cerevisiae is not observed
- concentration range of cationic uncoupler relative to FCCP [4]: at least an order of magnitude higher
- concentration range protecting cells against amiodarone ([4]; 1-10000 nmol/L tested): 1 to 1000 nmol/L
- intraliposomal pH changes ([5]; in the absence of valinomycin, C12R19 150 nM): pH changes did not occur
- dissipation of pH gradient (intraliposomal pH change), protonophore activity [5]: significant changes of intraliposomal pH on the time-scale of minutes
- formation of potential upon creation of gradient of the penetrating cation [6]: did not
- formation of proton diffusion potential across lipid bilayer [6]: can generate potential

SMILES: CCCCCCCCCCCCOC(=O)c1ccccc1-c1c2ccc(N(CC)CC)cc2[o+]c2cc(N(CC)CC)ccc12 [C12RB]
- rate of respiration of whole yeast cells ([2]; concentration of 4 μM): significant increase in the rate of respiration
- rate of respiration of whole yeast cells ([2]; further increase in concentration above 4 μM): inhibition of respiration
- dissipation of pH gradient (intraliposomal pH change), protonophore activity [5]: practically no activity
- formation of potential upon creation of gradient of the penetrating cation [6]: induced the potential upon addition at one side
- formation of proton diffusion potential across lipid bilayer [6]: but not C12RB, can generate potential

SMILES: O=[N+]([O-])c1ccc(O)c([N+](=O)[O-])c1 [DNP, 2,4-dinitrophenol]
- side effects in patients (obese people): many of them showed severe side effects
- weight loss in patients (obese people): virtually all of the patients lost weight

SMILES: N#CC(C#N)=NNc1ccc(OC(F)(F)F)cc1 [FCCP]
- uncoupling efficiency estimated from rate of oxygen consumption ([2]; FCCP compared with C12R19): much higher than that of C12R19
- stimulation of respiration versus suppression of growth [2]: in contrast to FCCP
- yeast cell death caused by amiodarone [7]: prevents yeast cell death caused by amiodarone
- dissipation of pH gradient (intraliposomal pH change), protonophore activity [5]: significantly greater activity

SMILES: CC(C)[C@@H]1NC(=O)[C@H](C)OC(=O)[C@@H](C(C)C)NC(=O)[C@@H](C(C)C)OC(=O)[C@H](C(C)C)NC(=O)[C@H](C)OC(=O)[C@@H](C(C)C)NC(=O)[C@@H](C(C)C)OC(=O)[C@H](C(C)C)NC(=O)[C@H](C)OC(=O)[C@@H](C(C)C)NC(=O)[C@@H](C(C)C)OC1=O [valinomycin]
- proton flux on liposomes by valinomycin itself ([5]; control experiments, data not shown): does not induce proton flux on liposomes
